Patent US12214008B2, “Protein interfaces” (SyntheX, Inc., priority 2016, dated 2025)

What was measured:
A549 xenograft = test: athymic mouse A549 xenograft model; format: in vivo, mice
Description: Female athymic nu/nu mice (6-8 weeks old) were purchased from Simonsen labs (n=12) and were housed at the Murigenics vivarium in Vallejo. The mice were acclimated to the setting of the vivarium for 5 days and maintained on a standard chow diet; 12:12 dark/light cycle; and group housed (3 mice per cage) in hepa-filtered cages. After acclimation, each mouse was injected subcutaneously (lower left abdominal flank) with 5×10^6 A549 (ATCC: CCL-185) cells mixed with 1:1 (v/v) with Matrigel solution. When the tumors reached a volume of ˜100 mm3, the mice were divided into separate treatment groups for the desired treatments. Experiments using both intra-tumoral (IT) and intraperitoneal (IP) administration were performed and the data are reported in FIG. 19.
Mice prepared as described above were divided into 4 groups: • Group 1: were not treated with anything (n=3) • Group 2: received an intra-tumoral injection of 50 microliters of Phosphate Buffered Saline (mock) (n=3) • Group 3: received an intra-tumoral injection of 50 microliters of 10 mg/ml compound 10 in Phosphate Buffered Saline (n=3) • Group 4: received an intra-tumoral injection of 50 microliters of 20 mg/ml compound 10 in Phosphate Buffered Saline (n=3)
The 50 microliter injections were carried out with a (30 g needle). The injections were administered on day zero and then again on day 3. The length (L) and the width (W) of the tumor mass was measured with a Vernier caliper and the tumor volume (V) was calculated as V=(L×W^2)/2. The relative tumor volume of each tumor mass on each measurement day was normalized against the initial volume of the same mass on day zero right before initiation of injections. […]
The injections were carried out with a 30 g needle. […] The length (L) and the width (W) of the tumor mass was measured with a Vernier caliper and the tumor volume (V) was calculated as V=(L×W^2)/2. […]

A549 cells = test: xCELLigence cell death assay; format: cell-based; details: FIG. 15
Description: (§1) To optimize cellular activity, compounds were tested in xCELLigence cell death assays against various cell lines. An example of the workflow used is shown using A549 cells and compound 10 in FIGS. 15 and 16. […] Data from xCELLigence traces at different compound concentrations from FIG. 15 was then used to generate a dose-response curve, which was then subjected to nonlinear regression using a sigmoidal dose-response model to generate IC50s and R2 values for cell death for each compound/cell line combination (FIG. 16).

RAD51 = target: T1, RAD51 (Homo sapiens, UniProt Q06609); test: microscale thermophoresis; format: binding
T1 sequence (Q06609 1-339): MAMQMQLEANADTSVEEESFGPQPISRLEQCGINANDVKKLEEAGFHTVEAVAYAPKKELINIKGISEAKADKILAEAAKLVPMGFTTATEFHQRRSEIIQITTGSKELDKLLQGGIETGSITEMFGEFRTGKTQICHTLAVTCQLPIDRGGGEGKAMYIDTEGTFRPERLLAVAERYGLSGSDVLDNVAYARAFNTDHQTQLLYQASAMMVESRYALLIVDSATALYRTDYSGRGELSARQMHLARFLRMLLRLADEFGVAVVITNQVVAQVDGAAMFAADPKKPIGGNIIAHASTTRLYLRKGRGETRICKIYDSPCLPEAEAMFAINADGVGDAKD
Description: To test the interaction between calcium binding and peptide binding to RAD51, the Kds of active (Compound 5, 10) peptides for RAD51 were tested by a microscale thermophoresis assay, and the Kd of compound 5 was additionally performed in the presence of 1 mM calcium.
Microscale thermophoresis was performed as previously described (see, for e.g. Jerabek-Willemsen, M., Wienken, C. J., Braun, D., Baaske, P. & Duhr, S. Molecular interaction studies using microscale thermophoresis. Assay Drug Dev. Technol. 9, 342-353 (2011)). The affinity of the Compound was measured using the Monolith NT.115 from Nanotemper Technologies. Rad51 was fluorescently labelled according to the manufacturer's protocol and the labelled protein used for each assay was about 500 nM. A solution of unlabelled peptide was diluted for appropriate serial concentration gradient. The samples were loaded into silica capillaries (Polymicro Technologies). Measurements were performed at room temperature in buffer containing PBS, 0.1% Tween 20, 0.5 mM ATP, 2.5 uM ssDNA, with 1 mM CaCl2 (when mentioned). Measurements were done using 12% LED power and 60% MST power. The assays were repeated three times for each affinity measurement. Data analyses were performed using Nanotemper Analysis software and OriginPro 8.0 software provided by the manufacturer.

SSP-25 cells = test: xCELLigence cell death assay; format: cell-based; details: 10 μM compound 10 alone
Description: Further, singly-dosed cells continued to recover, which indicated reduced general cytotoxicity of the compound in the media or the lysed cells.
as §1
To further investigate the hypothesis that peptide binding to RAD51 in cells causes cell death via increases in intracellular free calcium levels, compound 10 alone and in combination with two different intracellular calcium chelators (1,2-Bis(2-aminophenoxy) ethane-N,N,N′,N′-tetraacetic acid tetrakis(acetoxymethyl ester) aka “BAPTA-AM”, and ammoniated ruthenium oxychloride aka “ruthenium red”) was tested in an xCELLigence™ cell death assay as in Example 3. The intracellular calcium chelators alone were also evaluated on the cells.

CSCC[C@@H](NC(=O)[C@@H](CC(C)C)NC(C)=O)C(=O)N[C@H](CCCNC(=N)N)C(=O)N[C@H](CO)C(=O)N[C@@H](C(=O)N[C@H](CCCNC(=N)N)C(=O)N[C@H](CC(C)C)C(=O)N[C@H](CCCNC(=N)N)C(=O)N[C@@H](C(=O)NCC(=O)N[C@H](CC(C)C)C(=O)N[C@H](CCCNC(=N)N)C(=O)N[C@H](CCCCN)C(=O)N[C@H](CCCNC(=N)N)C(=O)N[C@H](CCCNC(=N)N)C(=O)N[C@H](CCCNC(=N)N)C(=O)N[C@H](CCCNC(=N)N)C(=O)N[C@H](CCCNC(=N)N)C(=O)N[C@H](CCCNC(=N)N)C(=O)N[C@H](CCCNC(=N)N)C(N)=O)C(C)C)C(C)C [Compound 10, Ac-lmrsvrlrvGlrkrrrrrrr-NH2]
relative tumor volume, intra-tumoral dosing (A549 xenograft; 50 microliters of 10 or 20 mg/ml intra-tumoral on day 0 and day 3, measured days 0, 3, 6): measurable decreases in tumor size as early as day 3
relative tumor volume, intra-peritoneal dosing (A549 xenograft; 125 microliters of 3 mg/ml intra-peritoneal on day 7, measured days 0-10): measurable decreases in tumor size as early as 3 days after injection (day 10)
tumor volume (A549 xenograft; FIG. 19, intratumoral and intraperitoneal): significant effects on tumor volume after only a few days of treatment
cell killing of A549 cells (cell index) (A549 cells): cell killing of A549 cells
Kd (RAD51; PBS): 8.55 nM
Kd (RAD51; without added calcium): ~8 nM
cell death of SSP-25 cells, compound alone (SSP-25 cells): significant cell death
